Test results published in ChEMBL document CHEMBL4414547, “Discovery of a novel 2,5-dihydroxycinnamic acid-based 5-lipoxygenase inhibitor that induces apoptosis and may impair autophagic flux in RCC4 renal cancer cells” (Eur J Med Chem, 2019).
Each block holds one compound with its values, some of them ahead of it. Activity calls are given as the source filed them. The calls are words filed in the database; no cut-off is given here.

Assays:
[1] = target: T1, Polyunsaturated fatty acid 5-lipoxygenase (Homo sapiens) (UniProt P09917); assay: (§1) Inhibition of human 5-LO transfected in HEK293 cells coexpressing FLAP assessed as reduction in leukotriene formation at 1 uM using arachidonic acid as substrate preincubated for 5 mins followed by calcium ionophore A23187/arachidonic acid addition and measured after 15 mins by RP-HPLC analysis; type: cell-based
T1 sequence (whole entry): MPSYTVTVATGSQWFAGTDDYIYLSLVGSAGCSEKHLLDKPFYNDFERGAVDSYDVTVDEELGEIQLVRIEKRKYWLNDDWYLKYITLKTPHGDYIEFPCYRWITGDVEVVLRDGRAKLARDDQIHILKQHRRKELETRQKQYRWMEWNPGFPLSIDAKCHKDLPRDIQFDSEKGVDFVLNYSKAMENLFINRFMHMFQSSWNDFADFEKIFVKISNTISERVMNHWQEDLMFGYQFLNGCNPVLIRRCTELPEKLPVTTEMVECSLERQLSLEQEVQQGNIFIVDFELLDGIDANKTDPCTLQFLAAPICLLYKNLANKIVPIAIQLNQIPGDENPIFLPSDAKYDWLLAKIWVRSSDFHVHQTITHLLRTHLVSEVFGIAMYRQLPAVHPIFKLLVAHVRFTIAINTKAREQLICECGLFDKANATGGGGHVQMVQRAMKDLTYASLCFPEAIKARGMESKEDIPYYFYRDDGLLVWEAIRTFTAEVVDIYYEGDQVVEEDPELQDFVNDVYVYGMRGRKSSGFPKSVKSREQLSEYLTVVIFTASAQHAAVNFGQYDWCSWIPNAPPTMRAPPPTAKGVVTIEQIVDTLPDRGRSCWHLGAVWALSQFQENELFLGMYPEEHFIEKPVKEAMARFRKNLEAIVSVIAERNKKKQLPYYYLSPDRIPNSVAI

[2] = target: T1, Polyunsaturated fatty acid 5-lipoxygenase (Homo sapiens); assay: Inhibition of 5-LO in human PMNL cells assessed as reduction in leukotriene formation at 1 uM preincubated for 5 mins followed by thapsigargin stimulation measured after 15 mins by RP-HPLC analysis relative to control; type: cell-based
[3] = Antioxidant activity assessed as DPPH radical scavenging activity incubated for 30 mins under dark condition; type: functional
[4] = target: T1, Polyunsaturated fatty acid 5-lipoxygenase (Homo sapiens); assay: (§2) Inhibition of 5-LO in human PMNL cells assessed as reduction in leukotriene formation preincubated for 5 mins followed by thapsigargin stimulation measured after 15 mins by RP-HPLC analysis; type: cell-based
[5] = target: T2, Polyunsaturated fatty acid 5-lipoxygenase (Homo sapiens, UniProt P09917); assay: as §2; type: cell-based
T2 sequence (P09917 whole entry): T1 sequence (whole entry)

[6] = target: T1, Polyunsaturated fatty acid 5-lipoxygenase (Homo sapiens); assay: Potency index, ratio of Zileuton IC50 to compound IC50 for inhibition of 5-LO in human PMNL cells assessed as reduction in leukotriene formation preincubated for 5 mins followed by thapsigargin stimulation measured after 15 mins by RP-HPLC analysis; type: cell-based
[7] = target: T1, Polyunsaturated fatty acid 5-lipoxygenase (Homo sapiens); assay: Potency index, ratio of CAPE IC50 to compound IC50 for inhibition of 5-LO in human PMNL cells assessed as reduction in leukotriene formation preincubated for 5 mins followed by thapsigargin stimulation measured after 15 mins by RP-HPLC analysis; type: cell-based
[8] = Cytotoxicity against VHL-positive human RCC10 cells assessed as reduction in cell viability incubated for 4 days by XTT assay; type: functional, cell-based; settings: 96 h
[9] = system: RCC4; assay: Induction of autophagy in VHL-deficient human RCC4 cells assessed as increase in conversion of LC3B1 to LC3B2 expression at 2.5 to 10 uM incubated for 24 hrs by Western blot analysis; type: functional, cell-based
[10] = system: RCC4; assay: Cytotoxicity against VHL-deficient human RCC4 cells assessed as reduction in cell viability incubated for 4 days by XTT assay; type: functional, cell-based; settings: for IC50: RCC4, 96 h
[11] = system: RCC4/VHL; assay: Cytotoxicity against VHL-positive human RCC4/VHL cells assessed as reduction in cell viability incubated for 4 days by XTT assay; type: functional, cell-based; settings: for IC50: 96 h
[12] = Cytotoxicity against VHL-deficient human RCC10 cells assessed as reduction in cell viability incubated for 4 days by XTT assay; type: functional, cell-based; settings: 96 h
[13] = system: 786-0; assay: Cytotoxicity against VHL-deficient human 786-0 cells assessed as reduction in cell viability incubated for 4 days by XTT assay; type: functional, cell-based; settings: 786-0, 96 h
[14] = system: 786-0; assay: Cytotoxicity against VHL-positive human 786-0 cells assessed as reduction in cell viability incubated for 4 days by XTT assay; type: functional, cell-based; settings: 786-0, 96 h
[15] = system: RCC4; assay: Induction of apoptosis in VHL-deficient human RCC4 cells assessed as cleavage of pro-caspase 3 after 24 hrs by Western blot analysis; type: functional, cell-based
[16] = system: RCC4; assay: Induction of DNA damage in VHL-deficient human RCC4 cells assessed as induction of p53 expression at 2.5 to 10 uM incubated for 24 hrs by Western blot analysis; type: functional, cell-based
[17] = system: RCC4/VHL; assay: Induction of DNA damage in human RCC4/VHL cells assessed as induction of p53 expression at 2.5 to 10 uM incubated for 24 hrs by Western blot analysis; type: functional, cell-based
[18] = system: RCC4/VHL; assay: Induction of autophagy in human RCC4/VHL cells assessed as increase in conversion of LC3B1 to LC3B2 expression at 2.5 to 10 uM incubated for 24 hrs by Western blot analysis; type: functional, cell-based
[19] = system: RCC4; assay: Inhibition of autophagic flux in VHL-deficient human RCC4 cells assessed as increase in p62 expression at 2.5 to 10 uM incubated for 24 hrs by Western blot analysis; type: functional, cell-based
[20] = system: RCC4/VHL; assay: Inhibition of autophagic flux in human RCC4/VHL cells assessed as increase in p62 expression at 2.5 to 10 uM incubated for 24 hrs by Western blot analysis; type: functional, cell-based
[21] = system: RCC4; assay: Induction of autophagy in VHL-deficient human RCC4 cells assessed as increase in LC3B1 expression incubated for 24 hrs by Western blot analysis; type: functional, cell-based
[22] = system: RCC4; assay: Induction of autophagy in VHL-deficient human RCC4 cells assessed as increase in LC3B2 expression incubated for 24 hrs by Western blot analysis; type: functional, cell-based
[23] = system: RCC4/VHL; assay: Induction of autophagy in human RCC4/VHL cells assessed as increase in LC3B1 expression incubated for 24 hrs by Western blot analysis; type: functional, cell-based
[24] = system: RCC4/VHL; assay: Induction of autophagy in human RCC4/VHL cells assessed as increase in LC3B2 expression incubated for 24 hrs by Western blot analysis; type: functional, cell-based
[25] = target: T1, Polyunsaturated fatty acid 5-lipoxygenase (Homo sapiens); assay: as §1, with “as” for “as reduction in”, “analysis relative to control” for “analysis”; type: cell-based; set-up: scale not given: the % may be the effect or the level left
[26] = Selectivity ratio of IC50 for VHL-positive human RCC4/VHL cells to IC50 for VHL-deficient human RCC4 cells; type: functional
[27] = system: RCC4; assay: Induction of cellular phenotype changes in VHL-deficient human RCC4 cells at 2.5 to 10 uM incubated for 24 hrs by inverted microscopic analysis; type: functional, cell-based
[28] = system: RCC4/VHL; assay: Induction of cellular phenotype changes in human RCC4/VHL cells at 2.5 to 10 uM incubated for 24 hrs by inverted microscopic analysis; type: functional, cell-based
[29] = system: RCC4; assay: Induction of DNA damage in VHL-deficient human RCC4 cells assessed as induction of p53 expression at 1.25 uM incubated for 24 hrs by Western blot analysis; type: functional, cell-based
[30] = system: RCC4/VHL; assay: Induction of DNA damage in human RCC4/VHL cells assessed as induction of p53 expression at 1.25 uM incubated for 24 hrs by Western blot analysis; type: functional, cell-based
[31] = system: RCC4; assay: Induction of autophagy in VHL-deficient human RCC4 cells assessed as increase in conversion of LC3B1 to LC3B2 expression at 1.25 uM incubated for 24 hrs by Western blot analysis; type: functional, cell-based
[32] = system: RCC4/VHL; assay: Induction of autophagy in human RCC4/VHL cells assessed as increase in conversion of LC3B1 to LC3B2 expression at 1.25 uM incubated for 24 hrs by Western blot analysis; type: functional, cell-based
[33] = system: RCC4; assay: Inhibition of autophagic flux in VHL-deficient human RCC4 cells assessed as increase in p62 expression at 1.25 uM incubated for 24 hrs by Western blot analysis; type: functional, cell-based
[34] = system: RCC4/VHL; assay: Inhibition of autophagic flux in human RCC4/VHL cells assessed as increase in p62 expression at 1.25 uM incubated for 24 hrs by Western blot analysis; type: functional, cell-based
[35] = system: RCC4; assay: Induction of apoptosis in VHL-deficient human RCC4 cells assessed as cleavage of pro-caspase 3 at 1.25 uM incubated for 24 hrs by Western blot analysis; type: functional, cell-based
[36] = system: RCC4; assay: Induction of cellular phenotype changes in VHL-deficient human RCC4 cells at 1.25 uM incubated for 24 hrs by inverted microscopic analysis; type: functional, cell-based
[37] = system: RCC4/VHL; assay: Induction of apoptosis in human RCC4/VHL cells assessed as cleavage of pro-caspase 3 at 1.25 uM incubated for 24 hrs by Western blot analysis; type: functional, cell-based
[38] = system: RCC4/VHL; assay: Induction of cellular phenotype changes in human RCC4/VHL cells at 1.25 uM incubated for 24 hrs by inverted microscopic analysis; type: functional, cell-based
[39] = system: RCC4; assay: Induction of apoptosis in VHL-deficient human RCC4 cells assessed as cleavage of pro-caspase 3 at 0.5 uM incubated for 24 hrs by Western blot analysis; type: functional, cell-based
[40] = system: DNA; assay: Induction of DNA damage in VHL-deficient human RCC4 cells assessed as increase in p53 expression at 0.5 uM incubated for 24 hrs by Western blot analysis; type: cell-based
[41] = system: DNA; assay: Induction of DNA damage in human RCC4/VHL cells assessed as increase in p53 expression at 0.5 uM incubated for 24 hrs by Western blot analysis; type: cell-based
[42] = system: RCC4/VHL; assay: Induction of apoptosis in human RCC4/VHL cells assessed as cleavage of pro-caspase 3 at 0.5 uM incubated for 24 hrs by Western blot analysis; type: functional, cell-based

inhibition [1]: Active
inhibition [2]: Active
IC50 [3]: > 100 µM
Compound: CC(c1cc2ccccc2s1)N(O)C(N)=O (configuration not stated) [ZILEUTON]

inhibition [2]: > 50%
inhibition [4]: Dose-dependent effect
IC50 [5]: 0.33 µM
Ratio IC50 [6]: 7
Ratio IC50 [7]: 3
IC50 [3]: 16.4 µM
Activity [25]: 25%
Compound: O=C(/C=C/c1cc(O)ccc1O)OCCc1ccccc1
IC50 [8]: 0.96 µM
Activity [9]: Active
Activity [10]: Dose-dependent effect
IC50 [10]: 8 µM
Activity [11]: Dose-dependent effect
IC50 [11]: 99.6 µM
IC50 [12]: 5.04 µM
IC50 [13]: 34.8 µM
IC50 [14]: > 100 µM
Activity [15]: Dose-dependent effect
Activity [16]: inactive
Activity [17]: inactive
Activity [18]: Active
inhibition [19]: Active
inhibition [20]: Active
Activity [21]: Dose-dependent effect
Activity [22]: Dose-dependent effect
Activity [23]: Dose-dependent effect
Activity [24]: Dose-dependent effect
Ratio IC50 [26]: 12
Activity [27]: inactive
Activity [28]: inactive

inhibition [1]: Active
inhibition [2]: > 50%
IC50 [5]: 0.53 µM
Ratio IC50 [6]: 4
Ratio IC50 [7]: 1.8
IC50 [3]: 15 µM
Compound: O=C(/C=C/c1cc(O)ccc1O)CCc1ccccc1
IC50 [8]: 5.1 µM
IC50 [10]: 9.9 µM
IC50 [11]: 12.3 µM
IC50 [12]: 9.2 µM
IC50 [13]: 20.5 µM
IC50 [14]: 19 µM

inhibition [1]: Active
inhibition [2]: > 50%
IC50 [5]: 0.89 µM
Compound: O=C(/C=C/c1cccc(O)c1O)OCCc1ccccc1

IC50 [3]: 13.9 µM
Compound: O=C1O[C@H]([C@@H](O)CO)C(O)=C1O [ASCORBIC ACID]

inhibition [1]: inactive
IC50 [3]: 17.3 µM
Compound: O=C(OCCc1ccccc1)c1cc(O)ccc1O
IC50 [8]: 3.9 µM
IC50 [10]: 42.8 µM
IC50 [11]: > 100 µM
IC50 [12]: 14.8 µM
IC50 [13]: > 100 µM
IC50 [14]: > 100 µM

Activity [25]: 100%
Compound: O=C(/C=C/c1cc(O)cc(O)c1)OCCc1ccccc1

Compound: Cc1cccc(Nc2nc(-c3ccncc3)cs2)c1
IC50 [8]: 12.6 µM
IC50 [10]: 1.2 µM
IC50 [11]: 5.3 µM
IC50 [12]: 8.6 µM
IC50 [13]: 5.7 µM
IC50 [14]: 6.9 µM
Activity [29]: inactive
Activity [30]: inactive
Activity [31]: Active
Activity [32]: Active
inhibition [33]: Active
inhibition [34]: Active
Ratio IC50 [26]: 4.4
Activity [35]: inactive
Activity [36]: inactive
Activity [37]: inactive
Activity [38]: inactive

inhibition [1]: Active
inhibition [2]: Active
IC50 [3]: 18.2 µM
Compound: O=C(/C=C/c1ccc(O)c(O)c1)OCCc1ccccc1 [CAFFEIC ACID PHENETHYL ESTER]
IC50 [8]: 12.6 µM
IC50 [10]: 14 µM
IC50 [11]: 29.1 µM
IC50 [12]: 19.8 µM
IC50 [13]: 26.8 µM
IC50 [14]: 43.8 µM
Ratio IC50 [26]: 2.1

inhibition [1]: Active
Compound: O=C(/C=C/c1cccc(O)c1O)OCCCc1ccccc1

Compound: COc1cccc2c1C(=O)c1c(O)c3c(c(O)c1C2=O)C[C@@](O)(C(=O)CO)C[C@@H]3O[C@H]1C[C@H](N)[C@H](O)[C@H](C)O1
Activity [39]: inactive
Activity [40]: Active
Activity [41]: Active
Activity [42]: inactive

Activity [25]: 100%
Compound: O=C(/C=C/c1ccc(O)cc1O)OCCc1ccccc1

inhibition [1]: Active
Compound: O=C(/C=C/c1cc(O)ccc1O)OCCCc1ccccc1

inhibition [1]: inactive
Compound: O=C(/C=C/c1ccc(O)cc1O)OCCCc1ccccc1
